Experiment [1] concerns the target T1, human GR (Homo sapiens, UniProt P04150).
T1 sequence (P04150 1-777): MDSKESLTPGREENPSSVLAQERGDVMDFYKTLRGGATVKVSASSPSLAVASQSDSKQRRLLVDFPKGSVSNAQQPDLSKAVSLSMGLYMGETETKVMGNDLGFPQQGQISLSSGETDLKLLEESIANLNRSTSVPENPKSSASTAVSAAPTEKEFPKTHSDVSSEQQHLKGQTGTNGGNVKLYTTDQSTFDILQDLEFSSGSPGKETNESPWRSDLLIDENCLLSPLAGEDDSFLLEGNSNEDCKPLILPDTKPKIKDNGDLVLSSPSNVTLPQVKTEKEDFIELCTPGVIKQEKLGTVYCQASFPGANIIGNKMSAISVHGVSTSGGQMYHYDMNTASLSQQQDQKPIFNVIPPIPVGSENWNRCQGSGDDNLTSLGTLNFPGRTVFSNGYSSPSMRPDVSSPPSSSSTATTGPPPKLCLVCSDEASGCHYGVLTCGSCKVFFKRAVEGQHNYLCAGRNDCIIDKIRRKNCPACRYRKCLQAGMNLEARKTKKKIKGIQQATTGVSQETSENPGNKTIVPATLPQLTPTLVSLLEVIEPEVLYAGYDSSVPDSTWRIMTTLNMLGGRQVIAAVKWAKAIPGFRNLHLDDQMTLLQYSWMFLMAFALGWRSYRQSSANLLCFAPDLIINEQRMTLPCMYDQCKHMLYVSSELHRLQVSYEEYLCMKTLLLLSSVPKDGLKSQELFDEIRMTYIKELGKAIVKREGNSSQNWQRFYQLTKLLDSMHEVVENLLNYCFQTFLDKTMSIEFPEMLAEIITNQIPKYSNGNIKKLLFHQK
Put plainly: Trans-Activation Modulation of Glucocorticoid Receptor (GRAMMER), MMTV-LUC reporter, agonist mode. The experiment is classed as cell-based. More on the design: endogenous in cells. The conditions noted are these: for Emax: A549, A549 cells, maximum activity, read-out: Transactivation A549 Cells GRAMMER Emax; for EC50: A549 cells, inflection point, read-out: Transactivation A549 Cells GRAMMER IP. An outline of the steps:
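Readout is luciferase from a modified MMTV LTR promoter after 24 h compound exposure alongside 10 nM dexamethasone (100% activity reference), DMSO ≤1%.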

Experiment [2] has as its target T1, human GR. Put plainly: Transrepression Assay (GITAR), TNFα-β-lactamase reporter in U937 cells. In kind it is cell-based. More on the design: U937 cells contain an endogenous glucocorticoid receptor (GR); endogenous in cells; host or cells: U937 cells stably transfected with the TNF-alpha promoter/beta-lactamase reporter. The conditions noted are these: for GITAR > GRAMM % SEP: GITAR Emax minus GRAMMER Emax; for EC50: U937 cells, inflection point, read-out: Transrepression U937 Cells GITAR IP. An outline of the steps:
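Read-out: CCF2-AM β-lactamase signal after 70–90 min loading at room temperature. U937 TNF-α-promoter reporter cells (endogenous GR), compound 30–45 min at 37 °C, then PMA 5 ng/ml + LPS 100 ng/ml final, ~18 hr. Normalised to 100 nM dexamethasone = 100%.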

Where [3] appears, read: U-937, U937 cells, maximum activity, read-out: Transrepression U937 Cells GITAR Emax.
The mark [4] stands for this setting: U-937, activity repressed by 100 nM dexamethasone alone set as 100%, read-out: maximal activity in the transrepression (GITAR) assay.

As for `C[C@]12Cc3cnn(-c4ccc(F)cc4)c3C=C1CC[C@@H]2CN(CCc1ccccc1F)S(=O)(=O)Cc1cccc(Cl)c1` [Example 106, 1-(3-chlorophenyl)-N-[2-(2-fluorophenyl)ethyl]-N-{[(4αR,5S)-1-(4-fluorophenyl)-4α-methyl-1,4,4α,5,6,7-hexahydrocyclopenta[f]indazol-5-yl]methyl}methanesulfonamide], the Emax at human GR [1] was 82.8%; at human GR [2] (setting [3]), 85.3%; on human GR [2] (setting [4]), > 5%. Further, the figures for the EC50 at human GR [1] and at human GR [2] were 328 nM and 44.1 nM, respectively. Also, the “GITAR > GRAMM % SEP” value at human GR [2] is 2.5%.
For the molecule `C[C@]12Cc3cnn(-c4ccc(F)cc4)c3C=C1CC[C@@H]2CN(CCc1ccccc1F)S(=O)(=O)Cc1ccccc1Cl` [Example 107, 1-(2-chlorophenyl)-N-[2-(2-fluorophenyl)ethyl]-N-{[(4αR,5S)-1-(4-fluorophenyl)-4α-methyl-1,4,4α,5,6,7-hexahydrocyclopenta[f]indazol-5-yl]methyl}methanesulfonamide], the Emax on human GR [1] is 73%; at human GR [2] (setting [3]), 84.4%; on human GR [2] (setting [4]), > 5%. Moreover, the figures for the EC50 at human GR [1] and on human GR [2] were 395 nM and 54.1 nM, respectively. For the same molecule, the “GITAR > GRAMM % SEP” value at human GR [2] is on record as 11.4%.
Take `C[C@]12Cc3cnn(-c4ccc(F)cc4)c3C=C1CC[C@@H]2CN(CCc1ccccc1F)S(=O)(=O)Cc1ccccc1C(F)(F)F` [Example 108, N-[2-(2-fluorophenyl)ethyl]-N-{[(4αR,5S)-1-(4-fluorophenyl)-4α-methyl-1,4,4α,5,6,7-hexahydrocyclopenta[f]indazol-5-yl]methyl}-1-[2-(trifluoromethyl)phenyl]methanesulfonamide]: the Emax on human GR [1] is 46%; at human GR [2] (setting [3]), 70.5%; at human GR [2] (setting [4]), > 5%. Further, the EC50 on human GR [1] was 521 nM; at human GR [2], 185 nM. On human GR [2], the “GITAR > GRAMM % SEP” value was found to be 24.6%.
Consider `CC(C1CCC2=Cc3c(cnn3-c3ccc(F)cc3)C[C@@]21C)N(CC1CC1)S(=O)(=O)CC(F)(F)F` (stereo partly drawn) [Example 109, N-(cyclopropylmethyl)-2,2,2-trifluoro-N-{1-[(4αR)-1-(4-fluorophenyl)-4α-methyl-1,4,4α,5,6,7-hexahydrocyclopenta[f]indazol-5-yl]ethyl}ethanesulfonamide], for which the Emax was 54.1% on human GR [1], 91.1% on human GR [2] (setting [3]) and > 5% at human GR [2] (setting [4]). The EC50 turned out to be 209 nM at human GR [1] and 190 nM at human GR [2]. For the same molecule, on human GR [2], the “GITAR > GRAMM % SEP” value was 37.0%.
Consider `C[C@]12Cc3cnn(-c4ccc(F)cc4)c3C=C1CC[C@@H]2CN(CC1CCCO1)S(=O)(=O)Cc1cccc(C(F)(F)F)c1` (stereo partly drawn) [Example 110, N-{[(4αR,5S)-1-(4-fluorophenyl)-4α-methyl-1,4,4α,5,6,7-hexahydrocyclopenta[f]indazol-5-yl]methyl}-N-(tetrahydrofuran-2-ylmethyl)-1-[3-(trifluoromethyl)phenyl]methanesulfonamide], for which the Emax on human GR [1] was 4.9%; at human GR [2] (setting [3]), 26.2%; on human GR [2] (setting [4]), > 5%. The figures for the EC50 at human GR [1] and on human GR [2] were 1100 nM and 626 nM, respectively. The “GITAR > GRAMM % SEP” value at human GR [2] came out at 21.3%.
On to `C[C@]12Cc3cnn(-c4ccc(F)cc4)c3C=C1CC[C@@H]2CN(CCc1ccccc1F)S(=O)(=O)Cc1ccc(Cl)c(Cl)c1` [Example 111, 1-(3,4-dichlorophenyl)-N-[2-(2-fluorophenyl)ethyl]-N-{[(4αR,5S)-1-(4-fluorophenyl)-4α-methyl-1,4,4α,5,6,7-hexahydrocyclopenta[f]indazol-5-yl]methyl}methanesulfonamide], for which the Emax at human GR [1] was 37.6%; at human GR [2] (setting [3]), 75.7%; on human GR [2] (setting [4]), > 5%. Further, the EC50 was found to be 748 nM at human GR [1] and 325 nM on human GR [2]. In addition, on human GR [2], the “GITAR > GRAMM % SEP” value came to 38.1%.
In the case of `C[C@H](O)CN(C[C@H]1CCC2=Cc3c(cnn3-c3ccc(F)cc3)C[C@@]21C)S(=O)(=O)c1ccc(F)c(Cl)c1` [Example 112, 3-chloro-4-fluoro-N-{[(4αR,5S)-1-(4-fluorophenyl)-4α-methyl-1,4,4α,5,6,7-hexahydrocyclopenta[f]indazol-5-yl]methyl}-N-[(2S)-2-hydroxypropyl]benzenesulfonamide], the Emax at human GR [1] is 33.4%; on human GR [2] (setting [3]), 65.7%; on human GR [2] (setting [4]), > 5%. Further, the EC50 was found to be 423 nM at human GR [1] and 337 nM on human GR [2]. For the same molecule, the “GITAR > GRAMM % SEP” value at human GR [2] was determined as 32.3%.
`C[C@H](O)CN(C[C@H]1CCC2=Cc3c(cnn3-c3ccc(F)cc3)C[C@@]21C)S(=O)(=O)CC(F)(F)F` [Example 113]: the Emax at human GR [1] was 85.4%; at human GR [2] (setting [3]) it was 94%; at human GR [2] (setting [4]) it was > 5%. Besides, the EC50 worked out at 54.7 nM on human GR [1] and 59 nM on human GR [2]. For the same molecule, the “GITAR > GRAMM % SEP” value on human GR [2] was 8.7%.
For `C[C@@H](CN(C[C@H]1CCC2=Cc3c(cnn3-c3ccc(F)cc3)C[C@@]21C)S(=O)(=O)CC(F)(F)F)OS(=O)(=O)CC(F)(F)F` [Example 114, (1S)-2-{{[(4αR,5S)-1-(4-fluorophenyl)-4α-methyl-1,4,4α,5,6,7-hexahydrocyclopenta[f]indazol-5-yl]methyl}[(2,2,2-trifluoroethyl)sulfonyl]amino}-1-methylethyl 2,2,2-trifluoroethanesulfonate], the Emax is 80.3% on human GR [1], 98.5% on human GR [2] (setting [3]) and > 5% on human GR [2] (setting [4]). The EC50 on human GR [1] is 161 nM; at human GR [2], 148 nM. In addition, the “GITAR > GRAMM % SEP” value at human GR [2] is 18.2%.
As for `C[C@@H](O)CN(C[C@H]1CCC2=Cc3c(cnn3-c3ccc(F)cc3)C[C@@]21C)S(=O)(=O)c1ccc(F)c(Cl)c1` [Example 115, 3-chloro-4-fluoro-N-{[(4αR,5S)-1-(4-fluorophenyl)-4α-methyl-1,4,4α,5,6,7-hexahydrocyclopenta[f]indazol-5-yl]methyl}-N-[(2R)-2-hydroxypropyl]benzenesulfonamide], the Emax was 26.1% at human GR [1], 57.4% at human GR [2] (setting [3]) and > 5% at human GR [2] (setting [4]). In addition, the EC50 at human GR [1] was found to be 786 nM; at human GR [2] it was 643 nM. Moreover, the “GITAR > GRAMM % SEP” value on human GR [2] came to 31.2%.
For the molecule `C[C@]12Cc3cnn(-c4ccc(F)cc4)c3C=C1CC[C@@H]2CN(CCc1ccccc1O)S(=O)(=O)c1ccccc1F` [Example 116, 2-fluoro-N-{[(4αR,5S)-1-(4-fluorophenyl)-4α-methyl-1,4,4α,5,6,7-hexahydrocyclopenta[f]indazol-5-yl]methyl}-N-[2-(2-hydroxyphenyl)ethyl]benzenesulfonamide], the Emax at human GR [1] was 73.5%; on human GR [2] (setting [3]), 81.2%; on human GR [2] (setting [4]) it was > 5%. For the same molecule, the EC50 at human GR [1] was 676 nM; at human GR [2], 94.9 nM. For the same molecule, the “GITAR > GRAMM % SEP” value at human GR [2] was determined as 7.7%.
As for `C[C@]12Cc3cnn(-c4ccc(F)cc4)c3C=C1CC[C@@H]2CN(CCO)S(=O)(=O)c1ccccc1C(N)=O` [Example 117, 2-{[{[(4αR,5S)-1-(4-fluorophenyl)-4α-methyl-1,4,4α,5,6,7-hexahydrocyclopenta[f]indazol-5-yl]methyl}(2-hydroxyethyl)amino]sulfonyl}benzamide], the Emax was 45.1% on human GR [1], 73.7% at human GR [2] (setting [3]) and > 5% on human GR [2] (setting [4]). The EC50 on human GR [1] was 449 nM; on human GR [2], 533 nM. Further, at human GR [2], the “GITAR > GRAMM % SEP” value is 28.6%.
As for `COCCN(C[C@H]1CCC2=Cc3c(cnn3-c3ccc(F)cc3)C[C@@]21C)S(=O)(=O)CCN1C(=O)c2ccccc2C1=O` [Example 118, 2-(1,3-dioxo-1,3-dihydro-2H-isoindol-2-yl)-N-{[(4αR,5S)-1-(4-fluorophenyl)-4α-methyl-1,4,4α,5,6,7-hexahydrocyclopenta[f]indazol-5-yl]methyl}-N-(2-methoxyethyl)ethanesulfonamide], the Emax was 8.7% on human GR [1], 34.1% on human GR [2] (setting [3]) and > 5% at human GR [2] (setting [4]). Further, the results for the EC50 on human GR [1] and at human GR [2] were 853 nM and 1050 nM, respectively. Moreover, the “GITAR > GRAMM % SEP” value at human GR [2] was determined as 25.4%.
